In patent US6730677B2, “Benzofurazan compounds which enhance AMPA receptor activity” (The Regents of the University of California, priority 1997, dated 2004):

tested on: AMPA receptors; experiment: Field EPSP amplitude in field CA1 of rat hippocampal slice (in vitro physiological testing); type: cell-based; settings: estimated by interpolation or extrapolation
From the text: The field EPSP (excitory post-synaptic potential) recorded in field CA1 after stimulation of CA3 axons is known to be mediated by AMPA receptors, which are present in the synapses (Kessler et al., Brain Res. 560: 337-341 (1991)). Drugs that selectively block the receptor selectively block the field EPSP (Muller et al., Science, supra). […] These effects are mirrored in the field EPSP (see, for example, Staubli et al., Psychobiology, supra; Xiao et al., Hippocampus, supra; Staubli et al., Hippocampus 2:4958 (1992)).
To obtain the data shown in Table I, a bipolar nichrome stimulating electrode was positioned in the dendritic layer (stratum radiatum) of the hippocampal subfield CA1 close to the border of subfield CA3, as described in Example 21. Current pulses (0.1 msec) through the stimulating electrode activate a population of the Schaffer-commissural (SC) fibers, which arise from neurons in the subdivision CA3 and terminate in synapses on the dendrites of CA1 neurons. Activation of these synapses causes them to release the transmitter glutamate. Glutamate binds to the post-synaptic AMPA receptors which then transiently open an associated ion channel and permit a sodium current to enter the post-synaptic cell. This current results in a voltage in the extracellular space (the field EPSP), which is recorded by a high impedance recording electrode positioned in the middle of the stratum radiatum of CA1.
The intensity of the stimulation current was adjusted to produce half-maximal EPSPs (typically about 1.5-2.0 mV). Paired stimulation pulses were given every 40 sec with an interpulse interval of 200 msec, as described further in Example 21.
(§1) Hippocampal slices were maintained in a recording chamber continuously perfused with artificial cerebrospinal fluid (ACSF). During 15-30 minute intervals, the perfusion medium was switched to one containing various concentrations of the test compounds. Responses collected immediately before and at the end of drug perfusion were superimposed in order to calculate the percent increase in EPSP amplitude.
Invention compounds 1-9, as shown in FIG. 3 and Table I below, and reference compound CX516 (1-(quinoxalin-6-ylcarbonyl)piperidine), disclosed in PCT Pubn. No. WO 94/02475, were assayed in the physiological test system described above.
as §1, with “The physiological effects of invention compounds were tested in vitro with” for “Hippocampal”, “slices of rat hippocampus according to the following procedure. Excitatory responses (field EPSPs) were measured in hippocampal slices, which” for “slices”, “During a” for “During”, “interval,” for “intervals,”
To conduct these tests, the hippocampus was removed from anesthetized, 2 month old Sprague-Dawley rats and in vitro slices (400 micrometers thick) were prepared and maintained in an interface chamber at 35° C. using conventional techniques [see, for example, Dunwiddie and Lynch, J. Physiol. 276: 353-367 (1978)]. The chamber was constantly perfused at 0.5 mL/min with ACSF containing (in mM): NaCl 124, KCl 3, KH2PO4 1.25, MgSO42.5, CaCl2 3.4, NaHCO3 26, glucose 10 and L-ascorbate 2. A bipolar nichrome stimulating electrode was positioned in the dendritic layer (stratum radiatum) of the hippocampal subfield CA1 close to the border of subfield CA3.
Current pulses (0.1 msec) through the stimulating electrode activate a population of the Schaffer-commissural (SC) fibers which arise from neurons in the subdivision CA3 and terminate in synapses on the dendrites of CA1 neurons. Activation of these synapses causes them to release the transmitter glutamate. […]

First: O=C(c1ccc2nccnc2c1)N1CCCCC1 [CX516, 1-(quinoxalin-6-ylcarbonyl)piperidine, reference compound]
Second: O=C(c1ccc2nonc2c1)N1CCCCC1 [Compound 2, 1-(Benzofurazan-5-ylcarbonyl)piperidine]
The “Amp: concentration of compound that causes a 10% increase in the amplitude of the field EPSP in Field CA1 of rat hippocampal slice” value of the first is 17-fold higher: 50 µM for the first, 3 µM for the second.

First: O=C(c1ccc2nonc2c1)N1CC=CCC1 [Compound 3, 1-(Benzofurazan-5-ylcarbonyl)-1,2,3,6-tetrahydropyridine]
Second: O=C(c1ccc2nonc2c1)N1CC=C(F)CC1 [Compound 6, 1-(Benzofurazan-5-ylcarbonyl)-1,2,3,6-tetrahydro-4-fluoropyridine]
The “Amp: concentration of compound that causes a 10% increase in the amplitude of the field EPSP in Field CA1 of rat hippocampal slice” value of the first is 3.3-fold higher: 100 µM for the first, 30 µM for the second.

First: O=C(c1ccc2nonc2c1)N1CCC(F)CC1 [Compound 4, 1-(Benzofurazan-5-ylcarbonyl)-4-fluoropiperidine]
Second: O=C(c1ccc2nonc2c1)N1CCC(O)CC1 [Compound 9, 1-(Benzofurazan-5-ylcarbonyl)-4-hydroxypiperidine]
The “Amp: concentration of compound that causes a 10% increase in the amplitude of the field EPSP in Field CA1 of rat hippocampal slice” value of the first is 1.5-fold higher: 30 µM for the first, 20 µM for the second.

Going from `O=C(c1ccc2nonc2c1)N1CCC(F)(F)CC1` [Compound 5, 1-(Benzofurazan-5-ylcarbonyl)-4,4-difluoropiperidine] to `O=C(c1ccc2nonc2c1)N1CCOCC1` [Compound 7, 4-(Benzofurazan-5-ylcarbonyl)morpholine], the “Amp: concentration of compound that causes a 10% increase in the amplitude of the field EPSP in Field CA1 of rat hippocampal slice” value falls from 50 µM to 3 µM (17-fold).

With `N#CC1CCN(C(=O)c2ccc3nonc3c2)CC1` [Compound 8, 1-(Benzofurazan-5-ylcarbonyl)-4-cyanopiperidine] the “Amp: concentration of compound that causes a 10% increase in the amplitude of the field EPSP in Field CA1 of rat hippocampal slice” value was 1 µM.

With `O=C(c1ccc2nsnc2c1)N1CCCCC1` [Compound 1, 1-(Benzo-2,1,3-thiadiazole-5-ylcarbonyl)piperidine] the “Amp: concentration of compound that causes a 10% increase in the amplitude of the field EPSP in Field CA1 of rat hippocampal slice” value was under 100 µM.

tested on: methamphetamine-induced hyperactivity and/or stereotypic activity; experiment: Methamphetamine/rat model of schizophrenia (hyperactivity and/or stereotypic activity); type: in vivo, Sprague-Dawley rats; settings: methamphetamine/rat model
Method: The dose recorded is that which reduced the hyperactivity and/or the stereotypic activity induced by acute administration of 2 mg/kg methamphetamine in rats, as described in Example 22.
The dose recorded is that which reduced the hyperactivity and/or the stereotypic activity induced by acute administration of 2 mg/kg methamphetamine in Sprague-Dawley rats aged 2-4 months. Activity was monitored for 90 minutes using two rows of multiple, paired infrared diode-detectors such that the lower row detected locomotion and the upper row detected rearing behavior. Data were collected by and stored in a personal computer for later analysis.

With `O=C(c1ccc2nonc2c1)N1CCCCC1` [Compound 2, 1-(Benzofurazan-5-ylcarbonyl)piperidine] the “Reduction in dose giving an equivalent effect relative to reference compound CX516” value was “hundred-fold”.

same assay, conditions: rats, 2 mg/kg methamphetamine, activity monitored for 90 minutes

Going from `O=C(c1ccc2nccnc2c1)N1CCCCC1` [CX516, 1-(quinoxalin-6-ylcarbonyl)piperidine, reference compound] to `O=C(c1ccc2nonc2c1)N1CCCCC1` [Compound 2, 1-(Benzofurazan-5-ylcarbonyl)piperidine], the “MEDS: Minimum Effective Dose that produces a statistically significant improvement in behavior in the animal model of schizophrenia” value falls from 10 mg/kg to 0.1 mg/kg (100-fold).

`O=C(c1ccc2nonc2c1)N1CCC(F)CC1` [Compound 4, 1-(Benzofurazan-5-ylcarbonyl)-4-fluoropiperidine] and `O=C(c1ccc2nonc2c1)N1CCC(F)(F)CC1` [Compound 5, 1-(Benzofurazan-5-ylcarbonyl)-4,4-difluoropiperidine] are the same in “MEDS: Minimum Effective Dose that produces a statistically significant improvement in behavior in the animal model of schizophrenia” value: 1 mg/kg for the first, 1 mg/kg for the second.

tested on: not listed separately; experiment: Eight-arm radial maze task for cognition/memory enhancement; type: in vivo; settings: not given
From the text: This task has been described previously (Staubli et al., PNAS 91:777-781 (1994)) and Lynch and Rogers, PCT Pubn. No. WO 94/02475).

Going from `O=C(c1ccc2nccnc2c1)N1CCCCC1` [CX516, 1-(quinoxalin-6-ylcarbonyl)piperidine, reference compound] to `O=C(c1ccc2nonc2c1)N1CCCCC1` [Compound 2, 1-(Benzofurazan-5-ylcarbonyl)piperidine], the “MEDC: Minimum Effective Dose that produces a statistically significant improvement in behavior in the eight-arm radial maze task” value falls from 15 mg/kg to 0.1 mg/kg (150-fold).

`O=C(c1ccc2nonc2c1)N1CCOCC1` [Compound 7, 4-(Benzofurazan-5-ylcarbonyl)morpholine] and `O=C(c1ccc2nonc2c1)N1CCC(O)CC1` [Compound 9, 1-(Benzofurazan-5-ylcarbonyl)-4-hydroxypiperidine] are the same in “MEDC: Minimum Effective Dose that produces a statistically significant improvement in behavior in the eight-arm radial maze task” value: 0.1 mg/kg for the first, 0.1 mg/kg for the second.

With `N#CC1CCN(C(=O)c2ccc3nonc3c2)CC1` [Compound 8, 1-(Benzofurazan-5-ylcarbonyl)-4-cyanopiperidine] the “MEDC: Minimum Effective Dose that produces a statistically significant improvement in behavior in the eight-arm radial maze task” value was 0.1 mg/kg.

tested on: not listed separately; experiment: Animal model of depression (Malatynska and Kostowski); type: in vivo; settings: compared with CX516
From the text: J. Pharmacol. 40, 357-364 (1984).

With `O=C(c1ccc2nonc2c1)N1CCCCC1` [Compound 2, 1-(Benzofurazan-5-ylcarbonyl)piperidine] the “Potency relative to the reference compound in the animal model of depression” value was “approximately 500 fold”.
With `O=C(c1ccc2nonc2c1)N1CCC(O)CC1` [Compound 9, 1-(Benzofurazan-5-ylcarbonyl)-4-hydroxypiperidine] the “Potency relative to the reference compound in the animal model of depression” value was “approximately 500 fold”.

same assay, conditions: in vivo

First: O=C(c1ccc2nccnc2c1)N1CCCCC1 [CX516, 1-(quinoxalin-6-ylcarbonyl)piperidine, reference compound]
Second: O=C(c1ccc2nonc2c1)N1CCCCC1 [Compound 2, 1-(Benzofurazan-5-ylcarbonyl)piperidine]
The “MEDD: Minimum Effective Dose that produces a statistically significant improvement in behavior in an animal model of depression” value of the first is 500-fold higher: 5 mg/kg for the first, 0.01 mg/kg for the second.

For `O=C(c1ccc2nonc2c1)N1CCC(O)CC1` [Compound 9, 1-(Benzofurazan-5-ylcarbonyl)-4-hydroxypiperidine], the “MEDD: Minimum Effective Dose that produces a statistically significant improvement in behavior in an animal model of depression” value was 0.01 mg/kg.

tested on: not given; experiment: not given; settings: not given

First: O=C(c1ccc2nonc2c1)N1CCCCC1 [Compound 2, 1-(Benzofurazan-5-ylcarbonyl)piperidine]
Second: O=C(c1ccc2nonc2c1)N1CCCCCC1 [Compound 14, 1-(Benzofurazan-5-ylcarbonyl)hexamethyleneimine]
The melting point of the first is higher: 88.5 to 90.5 °C for the first, 86 to 87 °C for the second.

Compared with `N#CC1CCN(C(=O)c2ccc3nonc3c2)CC1` [Compound 8, 1-(Benzofurazan-5-ylcarbonyl)-4-cyanopiperidine], `O=C(c1ccc2nonc2c1)N1CCC(O)CC1` [Compound 9, 1-(Benzofurazan-5-ylcarbonyl)-4-hydroxypiperidine] is higher in melting point: 104 to 107 °C for the first, 132 to 136 °C for the second.

First: O=C(c1ccc2nonc2c1)[SH]1CCNCC1 [Compound 10, 1-(Benzofurazan-5-ylcarbonyl)thiomorpholine]
Second: O=C(c1ccc2nonc2c1)N1CCCC1 [Compound 11, 1-(Benzofurazan-5-ylcarbonyl)pyrrolidine]
The melting point of the first is higher: 144 to 146 °C for the first, 97.8 to 99.3 °C for the second.

First: O=C(c1ccc2nonc2c1)N1CC=CC1 [Compound 12, 1-(Benzofurazan-5-ylcarbonyl)-3-pyrroline]
Second: CC1CCN(C(=O)c2ccc3nonc3c2)CC1 [Compound 13, 1-(Benzofurazan-5-ylcarbonyl)-4-methylpiperidine]
The melting point of the first is higher: 117 to 118 °C for the first, 86 to 87 °C for the second.
